In one assay the test system is 628569-122-R-J1-PDC complex spheroid viability. Kind of assay: Anticancer human tumor 628569-122-R-J1-PDC patient-derived head and neck squamous carcinoma cell line growth inhibition [CLK]. Particulars: second compound 0.316 µM; first compound 0.316 µM; hits give low values. The method in brief: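 Patient-derived tumor cells grown as complex spheroids with HUVEC endothelial cells and mesenchymal stem cells, treated with drug combinations. Concentrations descend in half-log steps from near clinical Cmax, or from 10 microM if Cmax unknown.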
As to `O=c1[nH]cc(F)c(=O)[nH]1` + CNC(=O)c1ccc(Nc2nc(OC3CCCC3)c3c(-c4ccc5nc(C)oc5c4)c[nH]c3n2)c(OC)c1, the viability, T/C (as a rule, the result in the treated group divided by that in the control group, in per cent) is 52.4%.
Consider `CC1COCCN1c1cc(C2(S(C)(=N)=O)CC2)nc(-c2ccnc3[nH]ccc23)n1` (centres undefined) + CN1CCN(c2cc(C(=O)Nc3cc4cc(-c5cnn(C)c5)ccc4cn3)ccn2)CC1, for which the viability, T/C is 36%.
In the case of `COC1C=CCC(C)C(C)S(=O)(=O)NC(=O)c2ccc3c(c2)N(CC2CCC21)CC1(CCCc2cc(Cl)ccc21)CO3` (centres undefined) + CNC(=O)c1ccc(Nc2nc(OC3CCCC3)c3c(-c4ccc5nc(C)oc5c4)c[nH]c3n2)c(OC)c1, the viability, T/C was 36.7%.
Consider `COc1cccc2c1C(=O)c1c(O)c3c(c(O)c1C2=O)CC(O)(C(=O)CO)CC3OC1CC(N)C(O)C(C)O1` (centres undefined) + CNC(=O)c1ccc(Nc2nc(OC3CCCC3)c3c(-c4ccc5nc(C)oc5c4)c[nH]c3n2)c(OC)c1, for which the viability, T/C is 75.8%.

The same assay, now with this note: second compound 0.316 µM; first compound 1 µM; hits give low values.
For the molecule `O=c1[nH]cc(F)c(=O)[nH]1` + CNC(=O)c1ccc(Nc2nc(OC3CCCC3)c3c(-c4ccc5nc(C)oc5c4)c[nH]c3n2)c(OC)c1, the viability, T/C was 54%.
The same measure, in the same setting: in the case of `CC1COCCN1c1cc(C2(S(C)(=N)=O)CC2)nc(-c2ccnc3[nH]ccc23)n1` (centres undefined) + CN1CCN(c2cc(C(=O)Nc3cc4cc(-c5cnn(C)c5)ccc4cn3)ccn2)CC1 it was 38.4%; in that of `COC1C=CCC(C)C(C)S(=O)(=O)NC(=O)c2ccc3c(c2)N(CC2CCC21)CC1(CCCc2cc(Cl)ccc21)CO3` (centres undefined) + CNC(=O)c1ccc(Nc2nc(OC3CCCC3)c3c(-c4ccc5nc(C)oc5c4)c[nH]c3n2)c(OC)c1, 33.1%; in that of `COc1cccc2c1C(=O)c1c(O)c3c(c(O)c1C2=O)CC(O)(C(=O)CO)CC3OC1CC(N)C(O)C(C)O1` (centres undefined) + CNC(=O)c1ccc(Nc2nc(OC3CCCC3)c3c(-c4ccc5nc(C)oc5c4)c[nH]c3n2)c(OC)c1, 9.78%.

Staying with this assay, now noted: second compound 0.316 µM; first compound 3.16 µM; hits give low values.
In the case of `O=c1[nH]cc(F)c(=O)[nH]1` + CNC(=O)c1ccc(Nc2nc(OC3CCCC3)c3c(-c4ccc5nc(C)oc5c4)c[nH]c3n2)c(OC)c1, the viability, T/C was 60.3%.
On to `CC1COCCN1c1cc(C2(S(C)(=N)=O)CC2)nc(-c2ccnc3[nH]ccc23)n1` (centres undefined) + CN1CCN(c2cc(C(=O)Nc3cc4cc(-c5cnn(C)c5)ccc4cn3)ccn2)CC1, for which the viability, T/C is 27.2%.
The same measure, in the same setting: as for `COC1C=CCC(C)C(C)S(=O)(=O)NC(=O)c2ccc3c(c2)N(CC2CCC21)CC1(CCCc2cc(Cl)ccc21)CO3` (centres undefined) + CNC(=O)c1ccc(Nc2nc(OC3CCCC3)c3c(-c4ccc5nc(C)oc5c4)c[nH]c3n2)c(OC)c1, the figure is 35.8%; as for `COc1cccc2c1C(=O)c1c(O)c3c(c(O)c1C2=O)CC(O)(C(=O)CO)CC3OC1CC(N)C(O)C(C)O1` (centres undefined) + CNC(=O)c1ccc(Nc2nc(OC3CCCC3)c3c(-c4ccc5nc(C)oc5c4)c[nH]c3n2)c(OC)c1, 17.6%.

Still in this assay, the particulars now being: second compound 0.316 µM; first compound 10 µM; hits give low values.
In the case of `O=c1[nH]cc(F)c(=O)[nH]1` + CNC(=O)c1ccc(Nc2nc(OC3CCCC3)c3c(-c4ccc5nc(C)oc5c4)c[nH]c3n2)c(OC)c1, the viability, T/C was 47.8%.
With `CC1COCCN1c1cc(C2(S(C)(=N)=O)CC2)nc(-c2ccnc3[nH]ccc23)n1` (centres undefined) + CN1CCN(c2cc(C(=O)Nc3cc4cc(-c5cnn(C)c5)ccc4cn3)ccn2)CC1, the viability, T/C is 24.7%.
The same measure, in the same setting: in the case of `COC1C=CCC(C)C(C)S(=O)(=O)NC(=O)c2ccc3c(c2)N(CC2CCC21)CC1(CCCc2cc(Cl)ccc21)CO3` (centres undefined) + CNC(=O)c1ccc(Nc2nc(OC3CCCC3)c3c(-c4ccc5nc(C)oc5c4)c[nH]c3n2)c(OC)c1 it was 33.4%.
`COc1cccc2c1C(=O)c1c(O)c3c(c(O)c1C2=O)CC(O)(C(=O)CO)CC3OC1CC(N)C(O)C(C)O1` (centres undefined) + CNC(=O)c1ccc(Nc2nc(OC3CCCC3)c3c(-c4ccc5nc(C)oc5c4)c[nH]c3n2)c(OC)c1: the viability, T/C is 4.53%.

Still in this assay, the particulars now being: second compound 1 µM; first compound 0.0316 µM; hits give low values.
As to `O=c1[nH]cc(F)c(=O)[nH]1` + CNC(=O)c1ccc(Nc2nc(OC3CCCC3)c3c(-c4ccc5nc(C)oc5c4)c[nH]c3n2)c(OC)c1, the viability, T/C is 43.5%.
`CC1COCCN1c1cc(C2(S(C)(=N)=O)CC2)nc(-c2ccnc3[nH]ccc23)n1` (centres undefined) + CN1CCN(c2cc(C(=O)Nc3cc4cc(-c5cnn(C)c5)ccc4cn3)ccn2)CC1: the viability, T/C was 9.71%.
Take `COC1C=CCC(C)C(C)S(=O)(=O)NC(=O)c2ccc3c(c2)N(CC2CCC21)CC1(CCCc2cc(Cl)ccc21)CO3` (centres undefined) + CNC(=O)c1ccc(Nc2nc(OC3CCCC3)c3c(-c4ccc5nc(C)oc5c4)c[nH]c3n2)c(OC)c1: the viability, T/C is 51.2%.
For `COc1cccc2c1C(=O)c1c(O)c3c(c(O)c1C2=O)CC(O)(C(=O)CO)CC3OC1CC(N)C(O)C(C)O1` (centres undefined) + CNC(=O)c1ccc(Nc2nc(OC3CCCC3)c3c(-c4ccc5nc(C)oc5c4)c[nH]c3n2)c(OC)c1, the viability, T/C is 39.9%.

Staying with this assay, now noted: second compound 1 µM; first compound 0.1 µM; hits give low values.
As for `O=c1[nH]cc(F)c(=O)[nH]1` + CNC(=O)c1ccc(Nc2nc(OC3CCCC3)c3c(-c4ccc5nc(C)oc5c4)c[nH]c3n2)c(OC)c1, the viability, T/C is 50.4%.
On the same count and under the same terms, as for `CC1COCCN1c1cc(C2(S(C)(=N)=O)CC2)nc(-c2ccnc3[nH]ccc23)n1` (centres undefined) + CN1CCN(c2cc(C(=O)Nc3cc4cc(-c5cnn(C)c5)ccc4cn3)ccn2)CC1, the figure is 9.35%; as for `COC1C=CCC(C)C(C)S(=O)(=O)NC(=O)c2ccc3c(c2)N(CC2CCC21)CC1(CCCc2cc(Cl)ccc21)CO3` (centres undefined) + CNC(=O)c1ccc(Nc2nc(OC3CCCC3)c3c(-c4ccc5nc(C)oc5c4)c[nH]c3n2)c(OC)c1, 45.9%; as for `COc1cccc2c1C(=O)c1c(O)c3c(c(O)c1C2=O)CC(O)(C(=O)CO)CC3OC1CC(N)C(O)C(C)O1` (centres undefined) + CNC(=O)c1ccc(Nc2nc(OC3CCCC3)c3c(-c4ccc5nc(C)oc5c4)c[nH]c3n2)c(OC)c1, 47.9%.

The assay is the same for the next values; noted with them: second compound 1 µM; first compound 0.316 µM; hits give low values.
For `O=c1[nH]cc(F)c(=O)[nH]1` + CNC(=O)c1ccc(Nc2nc(OC3CCCC3)c3c(-c4ccc5nc(C)oc5c4)c[nH]c3n2)c(OC)c1, the viability, T/C was 41.6%.
Turning to `CC1COCCN1c1cc(C2(S(C)(=N)=O)CC2)nc(-c2ccnc3[nH]ccc23)n1` (centres undefined) + CN1CCN(c2cc(C(=O)Nc3cc4cc(-c5cnn(C)c5)ccc4cn3)ccn2)CC1, the viability, T/C is 7.68%.
Take `COC1C=CCC(C)C(C)S(=O)(=O)NC(=O)c2ccc3c(c2)N(CC2CCC21)CC1(CCCc2cc(Cl)ccc21)CO3` (centres undefined) + CNC(=O)c1ccc(Nc2nc(OC3CCCC3)c3c(-c4ccc5nc(C)oc5c4)c[nH]c3n2)c(OC)c1: the viability, T/C is 36.9%.
Turning to `COc1cccc2c1C(=O)c1c(O)c3c(c(O)c1C2=O)CC(O)(C(=O)CO)CC3OC1CC(N)C(O)C(C)O1` (centres undefined) + CNC(=O)c1ccc(Nc2nc(OC3CCCC3)c3c(-c4ccc5nc(C)oc5c4)c[nH]c3n2)c(OC)c1, the viability, T/C was 58.3%.

Staying with this assay, now noted: second compound 1 µM; first compound 1 µM; hits give low values.
Regarding `O=c1[nH]cc(F)c(=O)[nH]1` + CNC(=O)c1ccc(Nc2nc(OC3CCCC3)c3c(-c4ccc5nc(C)oc5c4)c[nH]c3n2)c(OC)c1, the viability, T/C is 52.3%.
With `CC1COCCN1c1cc(C2(S(C)(=N)=O)CC2)nc(-c2ccnc3[nH]ccc23)n1` (centres undefined) + CN1CCN(c2cc(C(=O)Nc3cc4cc(-c5cnn(C)c5)ccc4cn3)ccn2)CC1, the viability, T/C was 7.29%.
As for `COC1C=CCC(C)C(C)S(=O)(=O)NC(=O)c2ccc3c(c2)N(CC2CCC21)CC1(CCCc2cc(Cl)ccc21)CO3` (centres undefined) + CNC(=O)c1ccc(Nc2nc(OC3CCCC3)c3c(-c4ccc5nc(C)oc5c4)c[nH]c3n2)c(OC)c1, the viability, T/C is 35.9%.
Still for that read-out and setting: as for `COc1cccc2c1C(=O)c1c(O)c3c(c(O)c1C2=O)CC(O)(C(=O)CO)CC3OC1CC(N)C(O)C(C)O1` (centres undefined) + CNC(=O)c1ccc(Nc2nc(OC3CCCC3)c3c(-c4ccc5nc(C)oc5c4)c[nH]c3n2)c(OC)c1, the figure is 7.25%.

The same assay, now with this note: second compound 1 µM; first compound 3.16 µM; hits give low values.
As for `O=c1[nH]cc(F)c(=O)[nH]1` + CNC(=O)c1ccc(Nc2nc(OC3CCCC3)c3c(-c4ccc5nc(C)oc5c4)c[nH]c3n2)c(OC)c1, the viability, T/C is 54.7%.
On the same count and under the same terms, as for `CC1COCCN1c1cc(C2(S(C)(=N)=O)CC2)nc(-c2ccnc3[nH]ccc23)n1` (centres undefined) + CN1CCN(c2cc(C(=O)Nc3cc4cc(-c5cnn(C)c5)ccc4cn3)ccn2)CC1, the figure is 7.44%.
On the same count and under the same terms, as for `COC1C=CCC(C)C(C)S(=O)(=O)NC(=O)c2ccc3c(c2)N(CC2CCC21)CC1(CCCc2cc(Cl)ccc21)CO3` (centres undefined) + CNC(=O)c1ccc(Nc2nc(OC3CCCC3)c3c(-c4ccc5nc(C)oc5c4)c[nH]c3n2)c(OC)c1, the figure is 46%; as for `COc1cccc2c1C(=O)c1c(O)c3c(c(O)c1C2=O)CC(O)(C(=O)CO)CC3OC1CC(N)C(O)C(C)O1` (centres undefined) + CNC(=O)c1ccc(Nc2nc(OC3CCCC3)c3c(-c4ccc5nc(C)oc5c4)c[nH]c3n2)c(OC)c1, 14.1%.

The same assay, now with this note: second compound 1 µM; first compound 10 µM; hits give low values.
For `O=c1[nH]cc(F)c(=O)[nH]1` + CNC(=O)c1ccc(Nc2nc(OC3CCCC3)c3c(-c4ccc5nc(C)oc5c4)c[nH]c3n2)c(OC)c1, the viability, T/C is 47.7%.
On to `CC1COCCN1c1cc(C2(S(C)(=N)=O)CC2)nc(-c2ccnc3[nH]ccc23)n1` (centres undefined) + CN1CCN(c2cc(C(=O)Nc3cc4cc(-c5cnn(C)c5)ccc4cn3)ccn2)CC1, for which the viability, T/C was 10.3%.
As for `COC1C=CCC(C)C(C)S(=O)(=O)NC(=O)c2ccc3c(c2)N(CC2CCC21)CC1(CCCc2cc(Cl)ccc21)CO3` (centres undefined) + CNC(=O)c1ccc(Nc2nc(OC3CCCC3)c3c(-c4ccc5nc(C)oc5c4)c[nH]c3n2)c(OC)c1, the viability, T/C is 34.6%.
The same measure, in the same setting: as for `COc1cccc2c1C(=O)c1c(O)c3c(c(O)c1C2=O)CC(O)(C(=O)CO)CC3OC1CC(N)C(O)C(C)O1` (centres undefined) + CNC(=O)c1ccc(Nc2nc(OC3CCCC3)c3c(-c4ccc5nc(C)oc5c4)c[nH]c3n2)c(OC)c1, the figure is 5.15%.

The assay is the same for the next values; noted with them: second compound 3.16 µM; first compound 0.0316 µM; hits give low values.
As for `O=c1[nH]cc(F)c(=O)[nH]1` + CNC(=O)c1ccc(Nc2nc(OC3CCCC3)c3c(-c4ccc5nc(C)oc5c4)c[nH]c3n2)c(OC)c1, the viability, T/C was 44.9%.
Regarding `CC1COCCN1c1cc(C2(S(C)(=N)=O)CC2)nc(-c2ccnc3[nH]ccc23)n1` (centres undefined) + CN1CCN(c2cc(C(=O)Nc3cc4cc(-c5cnn(C)c5)ccc4cn3)ccn2)CC1, the viability, T/C was 8.58%.
Same read-out and setting: as for `COC1C=CCC(C)C(C)S(=O)(=O)NC(=O)c2ccc3c(c2)N(CC2CCC21)CC1(CCCc2cc(Cl)ccc21)CO3` (centres undefined) + CNC(=O)c1ccc(Nc2nc(OC3CCCC3)c3c(-c4ccc5nc(C)oc5c4)c[nH]c3n2)c(OC)c1, the figure is 43.2%; as for `COc1cccc2c1C(=O)c1c(O)c3c(c(O)c1C2=O)CC(O)(C(=O)CO)CC3OC1CC(N)C(O)C(C)O1` (centres undefined) + CNC(=O)c1ccc(Nc2nc(OC3CCCC3)c3c(-c4ccc5nc(C)oc5c4)c[nH]c3n2)c(OC)c1, 43.2%.

The values are drawn from PubChem BioAssay AID2060611 (Molecular Pharmacology Branch, DTP, NCI, 2025).
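Note: spheroids exposed to agents for seven days before readout; 100% = DMSO vehicle control viability.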
